Laboratory results reported in ChEMBL document CHEMBL1201862, “PubChem BioAssay data set” (2004).
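Method: 48-hour compound exposure of cells in 96-well plates, five concentrations, linear interpolation of endpoints. At the GI50, growth is halved.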 Activity calls are given as the source filed them. No stated cut-off is given here; in the data, active = GI50 up to about 1.1 µM and inactive = higher.

Assays:
Assay in all cases: NCI tumour cell line growth inhibition, 48 h
EKVX = test system: EKVX
NCI-H226 = test system: NCI-H226
KM12 = test system: KM12
SR = test system: SR
T47D = test system: T47D
MDA-MB-435 = test system: MDA-MB-435
SK-MEL-2 = test system: SK-MEL-2
NCI/ADR-RES = test system: NCI/ADR-RES
HOP-62 = test system: HOP-62
CCRF-CEM = test system: CCRF-CEM
SF-539 = test system: SF-539
SNB-19 = test system: SNB-19
HOP-92 = test system: HOP-92
CAKI-1 = test system: CAKI-1
U-251 = test system: U-251
A549 = test system: A549
SK-OV-3 = test system: SK-OV-3
SK-MEL-28 = test system: SK-MEL-28
M14 = test system: M14
IGROV-1 = test system: IGROV-1

Measured: GI50

O=C(O)c1cccc(CC(Br)C(=O)O)c1 (stereo not given)
inactive: EKVX > 100 µM | NCI-H226 > 100 µM | KM12 > 100 µM | SR > 100 µM | T47D > 100 µM | MDA-MB-435 > 100 µM | SK-MEL-2 > 100 µM | NCI/ADR-RES > 100 µM | HOP-62 > 100 µM | CCRF-CEM > 100 µM | SF-539 > 100 µM | SNB-19 > 100 µM | HOP-92 > 100 µM | CAKI-1 > 100 µM | U-251 > 100 µM | A549 > 100 µM | SK-OV-3 > 100 µM | SK-MEL-28 > 100 µM | M14 > 100 µM | IGROV-1 > 100 µM

CCc1oc2ccccc2c1C(=O)c1cc(Br)c(O)c(Br)c1 [BENZBROMARONE]
inactive: EKVX 30.7 µM | NCI-H226 22.1 µM | KM12 20.7 µM | SR 23.5 µM | T47D 19.9 µM | MDA-MB-435 29.7 µM | SK-MEL-2 19.8 µM | NCI/ADR-RES 31.6 µM | HOP-62 34.3 µM | CCRF-CEM 26.4 µM | SF-539 17.1 µM | SNB-19 36.1 µM | HOP-92 24.1 µM | CAKI-1 36.1 µM | U-251 17.3 µM | A549 34.8 µM | SK-OV-3 37.8 µM | SK-MEL-28 41.4 µM | M14 28.9 µM | IGROV-1 33.7 µM

COc1cc2c(cc1OC)C1CCc3ccccc3CN1CC2 (stereo not given)
inactive: EKVX > 100 µM | NCI-H226 > 100 µM | KM12 > 100 µM | SR > 100 µM | T47D > 100 µM | MDA-MB-435 > 100 µM | SK-MEL-2 > 100 µM | NCI/ADR-RES > 100 µM | HOP-62 > 100 µM | CCRF-CEM > 100 µM | SF-539 > 100 µM | SNB-19 > 100 µM | HOP-92 > 100 µM | CAKI-1 > 100 µM | U-251 > 100 µM | A549 > 100 µM | SK-OV-3 > 100 µM | SK-MEL-28 > 100 µM | M14 > 100 µM | IGROV-1 > 100 µM

OC(CC(CC(O)(C(F)(F)F)C(F)(F)F)=NN=C(CC(O)(C(F)(F)F)C(F)(F)F)CC(O)(C(F)(F)F)C(F)(F)F)(C(F)(F)F)C(F)(F)F
inactive: EKVX > 10 µM | NCI-H226 > 10 µM | KM12 > 10 µM | SR > 10 µM | T47D > 10 µM | MDA-MB-435 > 10 µM | SK-MEL-2 > 10 µM | NCI/ADR-RES > 10 µM | HOP-62 > 10 µM | CCRF-CEM > 10 µM | SF-539 > 10 µM | SNB-19 > 10 µM | HOP-92 > 10 µM | CAKI-1 > 10 µM | U-251 > 10 µM | A549 > 10 µM | SK-OV-3 > 10 µM | SK-MEL-28 > 10 µM | M14 > 10 µM | IGROV-1 > 10 µM

Cc1ccc([N+](=O)[O-])cc1S(=O)(=O)Nc1ccc(C2=NN(C(=O)c3ccccc3)C(c3ccccc3O)C2)cc1 (stereo not given)
inactive: EKVX 12.6 µM | NCI-H226 14.9 µM | KM12 28.6 µM | SR 21.2 µM | T47D 11.8 µM | MDA-MB-435 31.2 µM | SK-MEL-2 16.7 µM | NCI/ADR-RES 27 µM | HOP-62 25.3 µM | CCRF-CEM 17.5 µM | SF-539 17.3 µM | SNB-19 28.2 µM | HOP-92 12 µM | CAKI-1 17.6 µM | U-251 16.5 µM | A549 19.1 µM | SK-OV-3 19.1 µM | SK-MEL-28 28.2 µM | M14 16.3 µM | IGROV-1 10.2 µM

Cn1c(=O)c2c(nc(N3CCOCC3)n2CCCNCC(O)c2ccc(O)c(O)c2)n(C)c1=O (stereo not given)
inactive: EKVX > 100 µM | NCI-H226 > 100 µM | KM12 > 100 µM | SR 10 µM | T47D > 100 µM | MDA-MB-435 38.9 µM | SK-MEL-2 > 100 µM | NCI/ADR-RES > 100 µM | HOP-62 > 100 µM | CCRF-CEM > 100 µM | SF-539 > 100 µM | SNB-19 > 100 µM | HOP-92 > 100 µM | CAKI-1 > 100 µM | U-251 > 100 µM | A549 > 100 µM | SK-OV-3 > 100 µM | SK-MEL-28 > 100 µM | M14 > 100 µM | IGROV-1 > 100 µM

CCC12C=CCN3CCC4(c5cc(C(c6ccc(OC)cc6)C6Cc7ccccc7N6)c(OC)cc5N(C)C4C(O)(C(=O)OC)C1O)C32 (stereo not given)
inactive: EKVX 36.1 µM | NCI-H226 32.7 µM | KM12 5.89 µM | SR 8.04 µM | T47D 2.9 µM | MDA-MB-435 12.7 µM | SK-MEL-2 15.3 µM | NCI/ADR-RES 26.1 µM | HOP-62 26.5 µM | CCRF-CEM 3.67 µM | SF-539 21 µM | SNB-19 17.9 µM | HOP-92 2.81 µM | CAKI-1 18.7 µM | U-251 11 µM | A549 20.4 µM | SK-OV-3 29.4 µM | SK-MEL-28 30.2 µM | M14 24.2 µM | IGROV-1 16.9 µM
